Measurements taken from publication PMC6017068, “Cloning and Functional Characterization of Two 4-Coumarate: CoA Ligase Genes from Selaginella moellendorffii” (Molecules : A Journal of Synthetic Chemistry and Natural …, 2018).
Blank lines part the entries; values can stand above or below the compound they belong to.

Experiments:
Format in all cases: biochemical
Conditions in all cases: ATP, MgCl2, 200 mM Tris-HCl, optimal pH about 7.0, optimal temperature 50 °C
[1] = biological target: T1, Sm4CL2 (Selaginella moellendorffii, UniProt D8S6A2); test: UV absorption at […] nm, CoA ester formation
T1 construct: gene 4CL2-1; 75-79 kDa with tags (tags kept)

[2] = biological target: T1, Sm4CL2; test: UV absorption at […] nm, CoA ester formation; remark: listed apart in the source
[3] = biological target: T1, Sm4CL2; test: HPLC quantification of CoA ester after […] min
[4] = biological target: T1, Sm4CL2; test: UV absorption at […] nm, CoA ester formation; remark: listed apart in the source

T1 sequence (D8S6A2 entry or part of it): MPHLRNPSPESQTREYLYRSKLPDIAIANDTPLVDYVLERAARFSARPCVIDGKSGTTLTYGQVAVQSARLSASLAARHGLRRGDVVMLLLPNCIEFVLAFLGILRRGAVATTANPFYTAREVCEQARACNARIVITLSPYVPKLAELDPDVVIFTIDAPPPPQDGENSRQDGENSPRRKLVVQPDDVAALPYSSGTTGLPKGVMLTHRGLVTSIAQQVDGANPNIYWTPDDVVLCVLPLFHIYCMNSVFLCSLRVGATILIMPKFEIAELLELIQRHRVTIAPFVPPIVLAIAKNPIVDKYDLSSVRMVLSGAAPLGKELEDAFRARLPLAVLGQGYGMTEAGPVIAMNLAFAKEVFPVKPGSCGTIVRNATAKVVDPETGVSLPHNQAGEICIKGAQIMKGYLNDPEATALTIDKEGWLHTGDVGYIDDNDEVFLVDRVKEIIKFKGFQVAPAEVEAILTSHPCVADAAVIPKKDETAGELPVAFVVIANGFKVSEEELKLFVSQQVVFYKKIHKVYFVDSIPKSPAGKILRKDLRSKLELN

Compound: O=C(O)/C=C/c1ccc(O)c(O)c1 [caffeic acid]
Km [1]: 19 ± 2.61 µM

Compound: O=C(O)/C=C/c1ccccc1 [cinnamic acid]
Km [2]: 127 ± 11.6 µM

Compound: O=C(O)/C=C/c1ccc(O)cc1 [p-coumaric acid]
Km [4]: 19.7 ± 2.92 µM

Results, then the compound that gave them:

Km [3]: 220 ± 36.9 µM
Compound: O=C(O)CCc1ccc(O)cc1 [dihydro-p-coumaric acid]

Km [1]: 96 ± 13.4 µM
Compound: COc1cc(/C=C/C(=O)O)ccc1O [ferulic acid]
